Experimental data as given in patent publication US20110177161A1, “PHARMACEUTICAL COMPOSITIONS OF [5(S)-(2'-HYDROXYETHOXY)-20(S)-CAMPTOTHECIN” (DR. REDDY'S LABORATORIES LIMITED, priority 2007, published 2011).

Legend:
Topoisomerase I = target: T1, Topoisomerase I (Homo sapiens, UniProt P11387); assay: Topoisomerase assay (TopoGEN Topo I Drug Screening Kit); format: biochemical
T1 construct: purchased Topogen, Inc., Port Orange, Fla
T1 sequence (P11387 1-765): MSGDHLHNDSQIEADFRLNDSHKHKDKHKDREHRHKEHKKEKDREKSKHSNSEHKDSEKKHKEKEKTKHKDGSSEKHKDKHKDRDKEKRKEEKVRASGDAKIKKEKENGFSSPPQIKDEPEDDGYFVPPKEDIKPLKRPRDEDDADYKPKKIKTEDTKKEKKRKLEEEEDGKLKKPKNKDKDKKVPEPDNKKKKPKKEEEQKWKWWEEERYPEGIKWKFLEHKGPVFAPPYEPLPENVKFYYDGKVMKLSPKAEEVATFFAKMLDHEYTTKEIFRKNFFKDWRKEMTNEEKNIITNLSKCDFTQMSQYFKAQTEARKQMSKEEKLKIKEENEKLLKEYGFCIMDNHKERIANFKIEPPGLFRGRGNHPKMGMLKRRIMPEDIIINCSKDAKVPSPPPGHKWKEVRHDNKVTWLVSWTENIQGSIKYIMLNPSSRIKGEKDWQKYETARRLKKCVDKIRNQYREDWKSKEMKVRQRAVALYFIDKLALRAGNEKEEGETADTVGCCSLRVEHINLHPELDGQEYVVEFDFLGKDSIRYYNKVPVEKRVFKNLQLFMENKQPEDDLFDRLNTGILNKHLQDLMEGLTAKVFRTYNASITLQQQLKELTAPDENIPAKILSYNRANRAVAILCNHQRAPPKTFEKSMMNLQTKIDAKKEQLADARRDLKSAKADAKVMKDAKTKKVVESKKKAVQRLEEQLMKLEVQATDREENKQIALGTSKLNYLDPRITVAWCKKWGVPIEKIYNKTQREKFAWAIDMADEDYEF
From the text: Topoisomerase I introduces transient nicks in DNA at specific sites. Detection of these transient DNA nicks requires trapping the enzyme on DNA in a nicked intermediate complex using protein denaturants. The resulting covalent DNA/top I complexes contain nicked open circular DNA which can be detected by agarose gel electrophoresis (with ethidium bromide). Trapping nicked intermediates is relatively inefficient, however, inhibitors, such as the natural product camptothecin, stabilize the intermediate and lead to an increase in the nicked DNA product. This forms the basis for a mechanistic drug screen designed to allow detection of agents that affect topoisomerase I by stabilizing the cleaved intermediate complex.
The TopoGEN Topo I Drug Screening Kit (Topogen, Inc., Port Orange, Fla.) is designed to allow the investigator to quickly identify novel inhibitors of topoisomerase I. The kit allows the detection of novel compounds that either stabilize the nicked intermediate or otherwise inhibit catalytic activity of topoisomerase I.
The above reaction mixture is incubated at 37 degree C. for 30 minutes. The reaction is terminated by adding 2 μl of 10% SDS and the mixture is vortexed rapidly (SDS should be added while at 37 degree C. as cooling the tubes might reseal the nicked DNA). 10× Dye, about 2.5 μl per tube, is added and equal volumes of a mixture of chloroform and isoamyl alcohol (24:1) is added and centrifuged at 13000 rpm for 10 minutes. Samples are loaded on a 1% agarose gel and electrophoresed for 1 hour at 80 volts. The gel was viewed on UV transilluminator and the densitometric estimation of the bands was calculated.
The density of the DNA bands of both super coiled and relaxed forms of DNA was measured using the densitometer. The band intensity of treated (with single concentration of the test drug) and without the drug (i.e., the Control) were recorded. The percentage of relaxed form DNA compared to the supercoiled DNA was calculated for all the lanes including treated and control. • % inhibition of Topoisomerase activity was calculated as: […]

in vivo = assay: in vivo; set-up: species or system Swiss Albino mice; conditions: Swiss Albino, mouse, po, 2.5 mg/kg
Experimental: 5(S)-CPT (2.5 mg/kg) and 5(RS)-CPT (5 mg/kg, including 2.5 mg/kg of 5(S)-CPT in the mixture) were been administered to Swiss Albino mice to evaluate oral pharmacokinetics.
Swiss Albino mice, 3-6 weeks of age and weighing between 28-34 g were used in the study. Twelve mice were used per study. The oral pharmacokinetics test was carried out in overnight fasted condition and intravenous pharmacokinetics was carried out in fed condition. The test drugs were administered as a solution by oral gavage or lateral tail vein injection. Sparse blood samples of about 250 microliters were collected from retro-orbital plexus at designated time points into microcentrifuge tubes containing 25 microliters of EDTA. Plasma was separated by centrifuging blood at 12,800 rpm for 2 min and refrigerated until analysis.
Samples were tested for the presence of the test drug as follows. An aliquot of 100µl plasma (stored at 8° C.) was precipitated with 400µl of cold methanol for the estimation of total (lactone+carboxylate). […] Concentrations of the test drug were calculated from the linearity plotted by spiking known concentrations of the test drug in blank rat plasma. The pharmacokinetics of the test drug was calculated using non-compartmental analysis.

Row | Structure (SMILES) | IC50 (Topoisomerase I) [µM] | AUC (in vivo) [µM·h] | fold more active than 5(R)-(2′-hydroxyethoxy)-20(S)-camptothecin in inhibiting topoisomerase I (Topoisomerase I) | times more active than 5(RS)-(2′-hydroxyethoxy)-20(S)-camptothecin in inhibiting topoisomerase I (Topoisomerase I)
1 | CC[C@@]1(O)C(=O)OCc2c1cc1n(c2=O)C(OCCO)c2cc3ccccc3nc2-1 (mixture of isomers) [5(RS)-(2′-hydroxyethoxy)-20(S)-camptothecin, reference compound] | 12.5 |  |  | 
2 | CC[C@@]1(O)C(=O)OCc2c1cc1n(c2=O)[C@@H](OCCO)c2cc3ccccc3nc2-1 [DRF-(5S,20S)-1042, 5(S)-(2′-hydroxyethoxy)-20(S)-camptothecin] |  | 1.1 | about 21 fold | about 12 times
